In one experiment the test system is IFN-α. In words: Induction of interferon-α using fresh human whole blood (WB). It counts as cell-based. To be noted: three donors, overnight incubation, response as % of 2 μM resiquimod control, read-out: mean pEC50 for IFN-α (converted). Here is the method: (§1) Assay for the Induction of Interferon-[…] and TNF-[…] Using Fresh Human Whole Blood (WB)
(§2) Compounds were prepared at 100× required concentration in DMSO in flat-bottom microtitre plates at a volume of 1.5 μL. Columns 1-10 contained a 1 in 4 serial dilution of the test compound. Included on each plate was a serial dilution of the TLR7/8 agonist resiquimod as a standard and Column 11 contained 1.5 μl of 200 μM resiquimod (giving a 2 μM final concentration, used to define the approximate maximal response to resiquimod). Each compound was assayed in duplicate for each donor.
(§3) Blood samples from three human donors were collected into sodium heparin (10 U/ml). 150 μl of whole Blood was dispensed into Col 1 to 11 of assay plates containing 1.5 μl of test compound or standard in DMSO. Plates were placed in an incubator overnight (37° C., 95% air, 5% CO2). Following the overnight incubation, plates were removed from the incubator & mixed on an orbital shaker for approximately 1 minute. 100 μl of 0.9% saline was added to each well and the plates mixed again on an orbital shaker. Plates were then centrifuged (2500 rpm, 10 mins), after which a sample of plasma was removed using a Biomek FX and assayed for both IFN-α and TNF-α using the MSD (Mesoscale Discovery) electrochemiluminescence assay platform. The IFN-α assay was carried out similarly to that described above. The TNF-α assay was carried out as per kit instructions (Cat No K111BHB).
(§4) Cytokine released was expressed as a percentage of the 2 μM resiquimod control (column 11). This percentage was plotted against compound concentration and the pEC50 for the response determined by non-linear least squares curve fitting. For the IFN-α responses, generally a 4 parameter logistic model was selected. For the TNF-α responses where a clear maximum response was obtained (i.e. a well defined plateau in the response was observed) then a 4 parameter model was generally used. If the upper asymptote of the curve wasn't well defined then the curve fitting was generally constrained to a maximal response of 100% (i.e. to the response to 2 μM resiquimod) or to the response of the highest concentration tested if this was greater than the resiquimod response. Some curves were bell shaped for one or both cytokines and the cytokine data on the down slope of the bell shaped response (i.e. concentrations above those giving the maximal response) were generally excluded from the fit, usually with the exception of the concentration immediately above the peak response. Curve fitting thus concentrated on the up slope of the dose response curve.

The next experiment relates to TNF-α. In words: Induction of TNF-α using fresh human whole blood (WB). Type of experiment: cell-based. To be noted: three donors, overnight incubation, response as % of 2 μM resiquimod control, read-out: mean pEC50 for TNF-α (converted). How it is done: as §1, §2, §3, §4

Molecules are shown by their SMILES. Counter-ions that a name gives are not always drawn. Bounds are passed on as bounds.

On to `CCCCc1nc(N)c2[nH]cc(CCCCCCN3CCCCC3)c2n1` [Example 1, 2-Butyl-7-(6-(piperidin-1-yl)hexyl)-5H-pyrrolo[3,2-d]pyrimidin-4-amine formate], for which the values for the EC50 with IFN-α and in the experiment on TNF-α were at most 5.01 µM and at least 5.01 µM, respectively.

`CCCCc1nc(N)c2[nH]cc(CCCCCN3CCCCC3)c2n1` [Example 2, 2-Butyl-7-(5-(piperidin-1-yl)pentyl)-5H-pyrrolo[3,2-d]pyrimidin-4-amine]: the EC50 is at most 5.01 µM with IFN-α and at least 5.01 µM with TNF-α.

On to `CCCCc1nc(N)c2[nH]cc(CCCCCN3CC(C)C3)c2n1` [Example 36, 2-Butyl-7-(5-(3-methylazetidin-1-yl)pentyl)-5H-pyrrolo[3,2-d]pyrimidin-4-amine], for which the results for the EC50 in the experiment with IFN-α and with TNF-α were at most 5.01 µM and at least 5.01 µM, respectively.

`COCCc1nc(N)c2[nH]cc(CCCCCN3CCCC3)c2n1` [Example 43, 2-(2-Methoxyethyl)-7-(5-(pyrrolidin-1-yl)pentyl)-5H-pyrrolo[3,2-d]pyrimidin-4-amine]: the EC50 was at most 5.01 µM in the experiment with IFN-α and at least 5.01 µM in the experiment on TNF-α.

Consider `CCCCc1nc(N)c2[nH]cc(CCCCN3CCCCC3)c2n1` [Example 3, 2-Butyl-7-(4-(piperidin-1-yl)butyl)-5H-pyrrolo[3,2-d]pyrimidin-4-amine], for which the EC50 was at most 5.01 µM in the experiment on IFN-α and at least 5.01 µM with TNF-α.

For `CCCCc1nc(N)c2[nH]cc(CCCCCCN3CC[C@H](F)C3)c2n1` [Example 33, (S)-2-Butyl-7-(6-(3-fluoropyrrolidin-1-yl)hexyl)-5H-pyrrolo[3,2-d]pyrimidin-4-amine], the figures for the EC50 in the experiment with IFN-α and in the experiment with TNF-α were at most 5.01 µM and at least 5.01 µM, respectively.

As to `CCCCc1nc(N)c2[nH]cc(CCCCCN3CCC3)c2n1` [Example 17, 7-(5-(Azetidin-1-yl)pentyl)-2-butyl-5H-pyrrolo[3,2-d]pyrimidin-4-amine], the EC50 was at most 5.01 µM in the experiment on IFN-α and at least 5.01 µM with TNF-α.

`CCCCc1nc(N)c2[nH]cc(CCCCCCN3CCCC3)c2n1` [Example 10, 2-Butyl-7-(6-(pyrrolidin-1-yl)hexyl)-5H-pyrrolo[3,2-d]pyrimidin-4-amine]: the values for the EC50 in the experiment with IFN-α and in the experiment on TNF-α were at most 5.01 µM and at least 5.01 µM, respectively.

As for `COCCc1nc(N)c2[nH]cc(CCCCCCN3CCCCCC3)c2n1` [Example 30, 7-(6-(Azepan-1-yl)hexyl)-2-(2-methoxyethyl)-5H-pyrrolo[3,2-d]pyrimidin-4-amine], the EC50 in the experiment with IFN-α was at most 5.01 µM; with TNF-α it was at least 5.01 µM.

Turning to `CCCCc1nc(N)c2[nH]c(C)c(CCCCN3CCCCC3)c2n1` [Example 8, 2-Butyl-6-methyl-7-(4-(piperidin-1-yl)butyl)-5H-pyrrolo[3,2-d]pyrimidin-4-amine], the EC50 in the experiment on IFN-α was at most 5.01 µM; in the experiment on TNF-α, at least 5.01 µM.

Regarding `CCCCc1nc(N)c2[nH]cc(CCCCCN3CCC(O)CC3)c2n1` [Example 23, 1-(5-(4-Amino-2-butyl-5H-pyrrolo[3,2-d]pyrimidin-7-yl)pentyl)piperidin-4-ol], the EC50 is at most 5.01 µM in the experiment on IFN-α and at least 5.01 µM in the experiment with TNF-α.

In the case of `CCCCc1nc(N)c2[nH]c(C)c(CCCCCCN3CCCC3)c2n1` [Example 14, 2-Butyl-6-methyl-7-(6-(pyrrolidin-1-yl)hexyl)-5H-pyrrolo[3,2-d]pyrimidin-4-amine], the results for the EC50 in the experiment with IFN-α and in the experiment with TNF-α were at most 5.01 µM and at least 5.01 µM, respectively.

Turning to `CCCCc1nc(N)c2[nH]cc(CCCCCCN3CCC(F)CC3)c2n1` [Example 31, 2-Butyl-7-(6-(4-fluoropiperidin-1-yl)hexyl)-5H-pyrrolo[3,2-d]pyrimidin-4-amine], the results for the EC50 with IFN-α and in the experiment with TNF-α were at most 5.01 µM and at least 5.01 µM, respectively.

For the compound `CCCCc1nc(N)c2[nH]cc(CCCCCN3CCCC3)c2n1` [Example 9, 2-Butyl-7-(5-(pyrrolidin-1-yl)pentyl)-5H-pyrrolo[3,2-d]pyrimidin-4-amine formate], the figures for the EC50 in the experiment on IFN-α and in the experiment on TNF-α were at most 5.01 µM and at least 5.01 µM, respectively.

Consider `CCCCc1nc(N)c2[nH]cc(CCCCCCN3CC[C@@H](F)C3)c2n1` [Example 32, (R)-2-Butyl-7-(6-(3-fluoropyrrolidin-1-yl)hexyl)-5H-pyrrolo[3,2-d]pyrimidin-4-amine], for which the EC50 in the experiment with IFN-α is at most 5.01 µM; in the experiment with TNF-α, at least 5.01 µM.

For the compound `COCCc1nc(N)c2[nH]cc(CCCCCN3CCC(F)CC3)c2n1` [Example 22, 7-(5-(4-Fluoropiperidin-1-yl)pentyl)-2-(2-methoxyethyl)-5H-pyrrolo[3,2-d]pyrimidin-4-amine], the results for the EC50 in the experiment with IFN-α and in the experiment on TNF-α were at most 5.01 µM and at least 5.01 µM, respectively.

Regarding `CCCCc1nc(N)c2[nH]c(C)c(CCCCCN3CC[C@H](F)C3)c2n1` [Example 40, (S)-2-Butyl-7-(5-(3-fluoropyrrolidin-1-yl)pentyl)-6-methyl-5H-pyrrolo[3,2-d]pyrimidin-4-amine], the EC50 is at most 5.01 µM in the experiment with IFN-α and at least 5.01 µM in the experiment on TNF-α.

As for `CCCCc1nc(N)c2[nH]cc(CCCCCN3CCC[C@@H]3C)c2n1` [Example 34, (S)-2-Butyl-7-(5-(2-methylpyrrolidin-1-yl)pentyl)-5H-pyrrolo[3,2-d]pyrimidin-4-amine], the EC50 with IFN-α is at most 5.01 µM; in the experiment on TNF-α, at least 5.01 µM.

`CCCCc1nc(N)c2[nH]c(C)c(CCCCCN3CC[C@@H](F)C3)c2n1` [Example 41, (R)-2-Butyl-7-(5-(3-fluoropyrrolidin-1-yl)pentyl)-6-methyl-5H-pyrrolo[3,2-d]pyrimidin-4-amine]: the results for the EC50 with IFN-α and in the experiment with TNF-α were at most 5.01 µM and at least 5.01 µM, respectively.

Turning to `CCCCc1nc(N)c2[nH]c(C)c(CCCCCN3CCC3)c2n1` [Example 18, 7-(5-(Azetidin-1-yl)pentyl)-2-butyl-6-methyl-5H-pyrrolo[3,2-d]pyrimidin-4-amine], the EC50 in the experiment on IFN-α was at most 5.01 µM; with TNF-α, at least 5.01 µM.

Regarding `CCOCc1nc(N)c2[nH]cc(CCCCCCN3CCCCC3)c2n1` [Example 4, 2-(Ethoxymethyl)-7-(6-(piperidin-1-yl)hexyl)-5H-pyrrolo[3,2-d]pyrimidin-4-amine], the EC50 in the experiment on IFN-α is at most 5.01 µM; with TNF-α, at least 5.01 µM.

Turning to `CCCCc1nc(N)c2[nH]cc(CCCCCN3CCC[C@H]3C)c2n1` [Example 35, (R)-2-Butyl-7-(5-(2-methylpyrrolidin-1-yl)pentyl)-5H-pyrrolo[3,2-d]pyrimidin-4-amine], the EC50 in the experiment with IFN-α was at most 5.01 µM; in the experiment with TNF-α it was at least 5.01 µM.

For `CCCCc1nc(N)c2[nH]cc(CCCCCN3CCCCCC3)c2n1` [Example 12, 7-(5-(Azepan-1-yl)pentyl)-2-butyl-5H-pyrrolo[3,2-d]pyrimidin-4-amine], the figures for the EC50 in the experiment on IFN-α and in the experiment on TNF-α were at most 5.01 µM and at least 5.01 µM, respectively.

Turning to `COCCc1nc(N)c2[nH]cc(CCCCCN3CC[C@H](F)C3)c2n1` [Example 27, (S)-7-(5-(3-Fluoropyrrolidin-1-yl)pentyl)-2-(2-methoxyethyl)-5H-pyrrolo[3,2-d]pyrimidin-4-amine formate], the results for the EC50 in the experiment with IFN-α and in the experiment with TNF-α were at most 5.01 µM and at least 5.01 µM, respectively.

For the compound `CCCCc1nc(N)c2[nH]c(C)c(CCCCN3CCCC3)c2n1` [Example 19, 2-Butyl-6-methyl-7-(4-(pyrrolidin-1-yl)butyl)-5H-pyrrolo[3,2-d]pyrimidin-4-amine], the EC50 in the experiment with IFN-α is at most 5.01 µM; with TNF-α it was at least 5.01 µM.

Consider `CCCCCc1nc(N)c2[nH]cc(CCCCCCN3CCCCC3)c2n1` [Example 11, 2-Pentyl-7-(6-(piperidin-1-yl)hexyl)-5H-pyrrolo[3,2-d]pyrimidin-4-amine], for which the EC50 with IFN-α was at most 5.01 µM; with TNF-α, at least 5.01 µM.

Consider `CCCCc1nc(N)c2[nH]cc(CCCCCN3CC[C@H](O)C3)c2n1` [Example 28, (S)-1-(5-(4-Amino-2-butyl-5H-pyrrolo[3,2-d]pyrimidin-7-yl)pentyl)pyrrolidin-3-ol], for which the EC50 is at most 5.01 µM in the experiment on IFN-α and at least 5.01 µM in the experiment with TNF-α.

In the case of `CCCCc1nc(N)c2[nH]cc(CCCCCN3CC(F)C3)c2n1` [Example 37, 2-Butyl-7-(5-(3-fluoroazetidin-1-yl)pentyl)-5H-pyrrolo[3,2-d]pyrimidin-4-amine], the EC50 is at most 5.01 µM in the experiment with IFN-α and at least 5.01 µM in the experiment on TNF-α.

Regarding `CCCCc1nc(N)c2[nH]c(C)c(CCCCCCN3CCC3)c2n1` [Example 15, 7-(6-(Azetidin-1-yl)hexyl)-2-butyl-6-methyl-5H-pyrrolo[3,2-d]pyrimidin-4-amine], the EC50 was at most 5.01 µM in the experiment with IFN-α and at least 5.01 µM in the experiment with TNF-α.

Consider `CCCCc1nc(N)c2[nH]c(C)c(CCCCCN3CC(F)C3)c2n1` [Example 42, 2-Butyl-7-(5-(3-fluoroazetidin-1-yl)pentyl)-6-methyl-5H-pyrrolo[3,2-d]pyrimidin-4-amine], for which the results for the EC50 in the experiment with IFN-α and with TNF-α were at most 5.01 µM and at least 5.01 µM, respectively.

(Values after patent publication US9907847B2, “Pyrrolopyrimidines as therapeutic agents for the treatment of diseases” (GlaxoSmithKline LLC, priority 2012, dated 2018).)
